Marks after values point to notes of the source that are not given here.
Columns and labels:
time-mated Wistar rats = test: in vivo maternal and prenatal developmental toxicity screening study (OECD 414 principles); details: rat
Text: The major differences to a full guideline study were the smaller sample size, using 9–10 instead of at least 16 pregnant rats, per test substance.
The animals were paired by the breeder [time-mated Wistar rats, Crl: WI (Han), Charles River Laboratories, Sulzfeld, Germany], between 10 and 12 weeks of age, and supplied on the day of evidence of mating; this day is referred to as gestational day (GD) 0 and following day as GD 1. […] This strain has been extensively used, both in our laboratory and elsewhere, and is sensitive to reproductive toxicants. All rats were housed individually in Makrolon cages with Lignocel PS 14 fibers dust-free bedding and wooden enrichment blocks. The cages were kept in climate-controlled rooms at 20–24 °C with a relative humidity of 30–70 %, an air exchange rate of 15 times per hour and a 12-h light/dark cycle. Diet (Ground Kliba SA, Switzerland) and tap water were provided ad libitum. In-life data (mortality, clinical signs, body weights and food consumption) were recorded throughout the study, but presented only if relevant for the interpretation of prenatal developmental effects.
The test compounds administered by gavage were administrated between 100 and 600 mg/kg bw/day using the vehicle 1 % carboxymethylcellulose in deionized water. The standard dose volume was 10 ml/kg bw.
On GD 20, the surviving dams were anesthetized with isoflurane, killed by decapitation and examined macroscopically. For each dam, the uterus was opened and the number, distribution and classification of implantation sites (live fetus, early and late fetal resorptions, and dead fetus) were determined. The fetuses were removed, sexed and fetal body weight determined. Gross pathological examination of the fetuses, including assessment of abnormalities of the fetal membranes, placentas, amniotic fluid and umbilical cord, was performed. Subsequently, all fetuses were killed by injection of pentobarbital. […] The other half of the fetuses of each dam was fixed in Harrison’s fluid. […] A permanent structural change that is likely to affect adversely the survival or health was assessed as malformation. A change that also occurs in the fetuses of control animals and/or is unlikely to affect adversely the survival or health was assessed as variation. This includes delays in growth or morphogenesis that have otherwise followed a normal pattern of development.
Maternal toxicity was classified as slight if body weight and/or carcass weight reduction is not above 10 %, moderate if body weight and/or carcass weight reduction is between 10 and 20 % and severe if body weight and/or carcass weight reduction is above 20 %. All the in vivo data are expressed as the affected fetuses/litter.

ES-D3 cells = test: ES-D3 cell differentiation assay (differentiation into contracting cardiomyocytes); assay type: cell-based, mouse; details: for Corrected BMCd50: BMCd50 divided by relative Papp value (BeWo model); for IC50: Mus musculus, Cardiomyocyte, 240 h, concentration for 50 % reduction in number of differentiated EBs, BMD modelling, day 10, read-out: BMCd50
Protocol: The murine ES-D3 cell line was purchased from ATCC (Wesel, Germany). The cells were maintained in polystyrene cell culture flasks (Corning, The Netherlands) in Dulbecco’s modified Eagle’s medium (DMEM, Invitrogen, Breda, The Netherlands), supplemented with 20 % heat-inactivated fetal calf serum (Lonza, BioWhittaker, Verviers, Belgium), 50 U/ml penicillin with 50 μg/ml streptomycin (Invitrogen), 2 mM L-glutamine (Invitrogen), 0.1 mM β-mercaptoethanol (Sigma-Aldrich) and 1 % (v/v) nonessential amino acids (Invitrogen), at 37 °C and 5 % CO2 in a humidified atmosphere. Cells were kept undifferentiated with 1000 U/ml murine leukemia inhibiting factor (LIF) (Sigma-Aldrich) and subcultured every 2–3 days using nonenzymatic cell dissociation solution (Sigma-Aldrich) to detach the cells.
Differentiation assays were carried out to detect the effect of test compounds on the differentiation of ES-D3 cells into contracting cardiomyocytes using culture medium in the absence of LIF. On day 1, droplets of 20 μl cell suspension (3.75 × 10^4 cells/ml) were placed as hanging drops, to which the test compounds 0594, 0595, 0596, 0599, 0600 and 0618 were added at concentrations ranging from 0.2 to 60 μM (final solvent concentration 0.2 % DMSO), on the inner side of the lid of a 96-well plate. Sterile lids of Eppendorf tubes were placed on the corner wells of the plates to prevent contact of the drops with the plate. The wells of the 96-well plate were filled with 250 μl phosphate buffered saline (PBS) (Invitrogen), and the plate was sealed with Micropore tape (3M, Neuss, Germany) to prevent evaporation of the hanging drops. Plates were incubated for 3 days at 37 °C and 5 % CO2 in a humidified atmosphere. In the drops, cells formed embryonic bodies (EBs), which were transferred to nontissue culture-treated Petri dishes (diameter 6 cm, Greiner) with 5 ml of medium with test compound. On day 5, the EBs were transferred to a 24-well plate (Corning) with 1 ml of medium with test compound, with one EB per well. On day 10, the number of wells containing contracting EBs was determined by visual inspection using a light microscope. Solvent control (0.2 % DMSO in culture medium) was included in each experiment. The solvent control was also used to assess the quality of the batch of ES-D3 cells used in each individual test (cells being randomly distributed over test groups and solvent control). Tests were accepted for further analysis if at least 21 of the 24 wells of the solvent control contained contracting cardiomyocytes. For each test compound, three independent assays were performed. The results were expressed as “fraction of total,” with 1.0 implying all EBs in one 24-well plate differentiated into contracting cardiomyocytes.
Different dichotomous concentration–response models were fitted to the in vitro developmental toxicity data obtained from the ES-D3 cell differentiation assay to calculate benchmark concentrations (BMC) using Environmental Protection Agency benchmark dose (BMD) software version 2.4. For each test compound, the BMCd50, representing the concentration for a 50 % reduction in the number of differentiated EBs, was derived. Models included in the evaluation were the gamma, logistic, loglogistic, probit, logprobit, multistage, weibull and the quantal-linear model. […] The lowest BMCd50 value was chosen from the accepted models.
To combine in vitro developmental toxicity data obtained from the ES-D3 cell differentiation assay with placental transfer data obtained from the BeWo transport model, a corrected BMCd50 value was calculated by dividing the BMCd50 values by the relative Papp values, as described in Li et al. ([2015]).

[1] = female, Wistar Crl:WI(Han), in vivo
[2] = gavage GD 6–19, 200 mg/kg, affected fetuses/litter
[3] = gavage GD 6–19, 600 mg/kg, affected fetuses/litter
[4] = gavage GD 6–19, 100 mg/kg, affected fetuses/litter

Row | Structure (SMILES) | Ranking (in vivo prenatal developmental toxicity potency) (time-mated Wistar rats; [1]) | Early resorption (%) (time-mated Wistar rats; gavage GD 6–19, 200 mg/kg) | Fetal weight (%) (time-mated Wistar rats; gavage GD 6–19, 200 mg/kg) | Late resorption (%) (time-mated Wistar rats; gavage GD 6–19, 200 mg/kg) | Maternal toxicity classification (time-mated Wistar rats; gavage GD 6–19, 200 mg/kg) | Maternal toxicity findings (time-mated Wistar rats; gavage GD 6–19, 200 mg/kg) | Placenta weight (%) (time-mated Wistar rats; gavage GD 6–19, 200 mg/kg) | Postimplantation loss (%) (time-mated Wistar rats; gavage GD 6–19, 200 mg/kg) | Total number of fetuses (time-mated Wistar rats; gavage GD 6–19, 200 mg/kg) | Malformation, Total (skeletal) (time-mated Wistar rats; [2]) | Early resorption (%) (time-mated Wistar rats; gavage GD 6–19, 600 mg/kg) | Late resorption (%) (time-mated Wistar rats; gavage GD 6–19, 600 mg/kg) | Postimplantation loss (%) (time-mated Wistar rats; gavage GD 6–19, 600 mg/kg) | Total number of fetuses (time-mated Wistar rats; gavage GD 6–19, 600 mg/kg) | Corrected BMCd50 (ES-D3 cells) | IC50 (ES-D3 cells) | further results
1 | CC1CC(C)OC(Cn2cncn2)(c2ccc(Oc3ccc(Cl)cc3)cc2Cl)O1 (stereo not shown) [compound 0600, 1-[[2-[2-Chloro-4-(4-chlorophenoxy)phenyl]-4,6-dimethyl-1,3-dioxan-2-yl]methyl]-1,2,4-triazole] | 3 | 4.0% | 102% | 0.0% | No | NAD | 105% | 4.0% | 99 | Total 0% | 6.0% | 1.0% | 7.0% | 104 | 21.0 µM | 4.2 µM | Fetal weight (%) (time-mated Wistar rats; gavage GD 6–19, 600 mg/kg): 102%; Placenta weight (%) (time-mated Wistar rats; gavage GD 6–19, 600 mg/kg): 130%; Malformation, CP (cleft palate) (time-mated Wistar rats; [3]): 5%; Malformation, Total (skeletal) (time-mated Wistar rats; [3]): 81%; Misshapen pterygoid bones (time-mated Wistar rats; [3]): 36.3%; Small tuberositas deltoidea (time-mated Wistar rats; [3]): 48.1%
2 | OC(c1cccnc1)c1c(-c2ccc(F)cc2F)csc1-c1ccc(F)cc1F (stereo not shown) [compound 0595, [2,4-Bis-(2,4-difluoro-phenyl)-thiophen-3-yl]-pyridin-3-yl-methanol] | 6 | 21.9% | 102% | 2.0% | No | NAD | 117% | 24% | 74 | Total 0% | 100% | 0.0% | 100.0** % | 0 | 141.8 µM | 11 µM | Maternal body weight (BW) (time-mated Wistar rats; gavage GD 6–19, 600 mg/kg): 74%; Maternal carcass weight (CW) (time-mated Wistar rats; gavage GD 6–19, 600 mg/kg): 89%; Maternal mortality (time-mated Wistar rats; gavage GD 6–19, 600 mg/kg): 30%; teratogenic potential (time-mated Wistar rats; overall assessment of the in vivo study): no teratogenic potential
3 | CC(c1nc(-c2ccc(C#N)cc2)cs1)C(O)(Cn1ccnc1)c1ccc(F)cc1 (stereo not shown) [compound 0599, 4-[2-[2-(4-Fluorophenyl)-2-hydroxy-3-imidazol-1-yl-1-methyl-propyl]thiazol-4-yl]benzonitrile] | – | – | – | – | – | – | – | – | – | – | – | – | – | – | 3.8 µM | 1.8 µM | Early resorption (%) (time-mated Wistar rats; gavage GD 6–19, 100 mg/kg): 7.8%; Fetal weight (%) (time-mated Wistar rats; gavage GD 6–19, 100 mg/kg): 102%; Late resorption (%) (time-mated Wistar rats; gavage GD 6–19, 100 mg/kg): 0.8%; Maternal carcass weight (CW) (time-mated Wistar rats; gavage GD 6–19, 100 mg/kg): 91%; Placenta weight (%) (time-mated Wistar rats; gavage GD 6–19, 100 mg/kg): 116%; Postimplantation loss (%) (time-mated Wistar rats; gavage GD 6–19, 100 mg/kg): 8.6%; Total number of fetuses (time-mated Wistar rats; gavage GD 6–19, 100 mg/kg): 99; Maternal body weight change BWC (6–8) (time-mated Wistar rats; gavage GD 6–19, 100 mg/kg, GD 6–8): 66%; Maternal food consumption FC (6–20) (time-mated Wistar rats; gavage GD 6–19, 100 mg/kg, GD 6–20): > 74%; Malformation, CP (cleft palate) (time-mated Wistar rats; [4]): 10%; Malformation, Total (skeletal) (time-mated Wistar rats; [4]): 100%; Misshapen basisphenoid (time-mated Wistar rats; [4]): 74.2%; Misshapen temporal bone (time-mated Wistar rats; [4]): 85.4%; Small tuberositas deltoidea (time-mated Wistar rats; [4]): 66.3%; Maternal mortality (time-mated Wistar rats; gavage GD 6–19, 250 mg/kg): Mortality 100 %**; Total number of fetuses (time-mated Wistar rats; gavage GD 6–19, 250 mg/kg): 0; Ranking (in vivo prenatal developmental toxicity potency) (time-mated Wistar rats; 1 = highest potential, 6 = lowest, among the six test compounds): 1

Reference: paper PMC4830886, “Extended evaluation on the ES-D3 cell differentiation assay combined with the BeWo transport model, to predict relative developmental toxicity of triazole compounds” (Archives of Toxicology, 2015)
